For 45 compounds, IC50 results are on record in patent publication US10501801B2, “Identification of tumor-protective epitopes for the treatment of cancers” (THE UNIVERSITY OF CONNECTICUT, priority 2012, dated 2019).

Ends that are not written are not given here.

Sequence of H-2 K^d (P01902 22-368): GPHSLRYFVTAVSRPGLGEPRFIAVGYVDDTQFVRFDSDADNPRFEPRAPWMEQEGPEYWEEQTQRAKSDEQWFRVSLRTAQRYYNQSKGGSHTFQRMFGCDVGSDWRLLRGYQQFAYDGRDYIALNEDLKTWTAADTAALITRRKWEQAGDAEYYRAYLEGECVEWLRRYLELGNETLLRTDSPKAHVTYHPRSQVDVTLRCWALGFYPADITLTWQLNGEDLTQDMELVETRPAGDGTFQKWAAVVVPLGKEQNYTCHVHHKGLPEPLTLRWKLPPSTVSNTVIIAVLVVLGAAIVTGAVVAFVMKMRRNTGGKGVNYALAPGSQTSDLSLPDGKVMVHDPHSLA
Sequence of H-2 K^d (P61769 21-119 partner): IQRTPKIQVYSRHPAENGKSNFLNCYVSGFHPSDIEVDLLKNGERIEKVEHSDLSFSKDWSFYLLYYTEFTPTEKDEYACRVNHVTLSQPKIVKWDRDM

One experiment addresses H-2 K^d (Mus musculus, UniProt P01902). The experiment can be described thus: Binding of peptides to purified H-2 K^d (inhibition of radiolabeled standard peptide).
Settings: not given
The method, then:
Binding assays. Binding of peptides to H-2 K^d was determined using quantitative assays based on the inhibition of binding of a radiolabeled standard peptide to purified MHC molecules, essentially as known in the art. […] Under the conditions utilized, where [label]<[MHC] and IC50≥[MHC], the measured IC50 values are reasonable approximations of the KD values.
In turn, SYMLQALCI [Tnpo3, (sy/LD)MLQALCI] yielded an IC50 of 0.146 µM. The same measure, in the same setting: the result for AYILAALTKL [Trim26.1] reads 0.0011 µM; that for GFHGCIHEVL [Slit3], more than 70 µM; that for AYILAALTKLQ [Trim26.2], more than 70 µM. The compound `CC[C@H](C)[C@H](N)C(=O)N[C@@H](Cc1ccc(O)cc1)C(=O)NCC(=O)N[C@H](C(=O)N[C@H](C(=O)N[C@@H](C)C(=O)N[C@@H](CCCNC(=N)N)C(=O)N[C@@H](CC(N)=O)C(=O)N[C@@H](CCCNC(=N)N)C(=O)N[C@@H](C)C(=O)N[C@@H](CC(C)C)C(=O)O)C(C)C)C(C)C` [Dis312.1, I(y/D)GVVARNRAL] gave an IC50 of more than 70 µM. On the same count and under the same terms, the result for LYHTRPTAL [Kdm4b, L(y/D)HTRPTAL] reads more than 70 µM. On to HYLQGSNA [Fiz1, H(y/D)LQGSNA], for which the IC50 was more than 70 µM. On the same count and under the same terms, the result for GYSVLHLAI [Nfkb1, G(y/D)SVLHLAI] reads 1.61 µM.

AYAKQFAA [Ube4a.2, A(y/D)AKQFAA]: the IC50 was more than 70 µM. On to PYKRLKAEPA [Prrc2a], for which the IC50 came out at 0.261 µM. The same measure, in the same setting: the result for PALKSEEKTL [Stau1.3] reads more than 70 µM; that for HYLSSILRL [Pacs2, HYLS(s/A)ILRL], 1.27 µM; that for LYVSKLNGP [Galnt1, L(y/D)VSKLNGP], more than 70 µM. Regarding NYLLSLVAVML [Serinc1], the IC50 worked out at 20.9 µM.

Turning to SYCEPALNQA [Ncdn], the IC50 is more than 70 µM.

VYLTCRLEKPA [Gapdh]: the IC50 is more than 70 µM.

Staying with this experiment, now noted: mutated peptide; Table 5; read-out: Measured IC50 for K^d Mut/WT: Mut.
As for PYLTQYAI [Dhx8.2, P(y/D)LTQYAI], the IC50 was more than 70 µM. As for “D(y/D)VPMEQPRP (DYVPMEQPRP; not fully specified; listed as Mus musculus) [Alkbh6.3]”, the IC50 is more than 70 µM. For the compound “SWSSRRSLLG(l/R) (SWSSRRSLLGL; not fully specified; listed as Mus musculus) [9430016H08Rik]”, the IC50 was more than 70 µM.

Regarding “ELQGLLEDE(l/R) (ELQGLLEDEL; not fully specified; printed as ELQGLLEDE(l/R); listed as Mus musculus) [Ccdc136]”, the IC50 was more than 70 µM. Take DYVPMEQPR [Alkbh6.2, D(y/D)VPMEQPR]: the IC50 was more than 70 µM.

KLQRQYRSPRL [Mast2]: the IC50 came to 10.1 µM. With VFPGLMEL [Atxn10.2, VFPGLME(l/R)], the IC50 was more than 70 µM. The same measure, in the same setting: with “QVFPGLME(l/R) (QVFPGLMEL; not fully specified; printed as QVFPGLME(l/R); listed as Mus musculus) [Atxn10.1]” the figure was more than 70 µM; with AYRLEGDRS [Dcaf6, A(y/D)RLEGDRS], more than 70 µM. As for AYILAALTKLQ [Zfp236.2, E(y/D)LDLQTQG], the IC50 was 10 µM.

The experiment is the same for the next values; noted with them: wild type counterpart peptide; Table 4; read-out: Measured IC50 for K^d Mut/WT: WT.
Turning to “AYCETCWE(l/W) (AYCETCWEL; not fully specified; printed as AYCETCWE(l/W); cysteine pairing not given here; listed as Mus musculus) [Apc]”, the IC50 was 0.06 µM.

For the compound CYAKVKEQL [Ssx2ip, CYAK(v/L)KEQL], the IC50 stood at 0.0032 µM. For HYINMILPI [Ufsp2, HYINM(i/S)LPI], the IC50 is less than 0.0001 µM. For “YYVPLLKRVP(l/S) (YYVPLLKRVPL; not fully specified; printed as YYVPLLKRVP(l/S); listed as Mus musculus) [Alms1.2]”, the IC50 amounted to 1.49 µM.

Still in this experiment, the particulars now being: wild type counterpart peptide; Table 5; read-out: Measured IC50 for K^d Mut/WT: WT.
Take PYLTQYAI [Dhx8.2, P(y/D)LTQYAI]: the IC50 was more than 70 µM. In the case of SEDKIKAIL [Rangap1], the IC50 was found to be 5.11 µM. Consider LYDVDAAF [Cpsf2, L(y/D)DVDAAF], for which the IC50 was more than 70 µM. In the case of DYVPMEQP [Alkbh6.1, D(y/D)VPMEQP], the IC50 was more than 70 µM. Consider LYEAGVTDE [Tpst2.2, L(y/D)EAGVTDE], for which the IC50 is more than 70 µM. Turning to “P(y/D)LTQYAIIML (PYLTQYAIIML; not fully specified; listed as Mus musculus) [Dhx8.1]”, the IC50 is 1.65 µM. For the compound “SWSSRRSLLG(l/R) (SWSSRRSLLGL; not fully specified; listed as Mus musculus) [9430016H08Rik]”, the IC50 was more than 70 µM. Take “D(y/D)VPMEQPRPP (DYVPMEQPRPP; not fully specified; listed as Mus musculus) [Alkbh6.4]”: the IC50 came out at 2.96 µM. KPALKSEEKTL [Stau1.2]: the IC50 is more than 70 µM. In the case of LYYERIHKKML [Ugdh], the IC50 turned out to be 0.012 µM. “ELQGLLEDE(l/R) (ELQGLLEDEL; not fully specified; printed as ELQGLLEDE(l/R); listed as Mus musculus) [Ccdc136]”: the IC50 is 4.54 µM. In the case of DYVPMEQPR [Alkbh6.2, D(y/D)VPMEQPR], the IC50 was determined as 51.2 µM. Consider EYLDLQTQ [Zfp236.1, E(y/D)LDLQTQ], for which the IC50 was more than 70 µM.

Regarding “P(y/D)LTQYAIIM (PYLTQYAIIM; not fully specified; listed as Mus musculus) [Dhx8.4]”, the IC50 was found to be 6.26 µM. “QVFPGLME(l/R) (QVFPGLMEL; not fully specified; printed as QVFPGLME(l/R); listed as Mus musculus) [Atxn10.1]”: the IC50 was determined as 7.05 µM. Take AYRLEGDRS [Dcaf6, A(y/D)RLEGDRS]: the IC50 was more than 70 µM. The same measure, in the same setting: the result for ALKSEEKTL [Stau1.4] reads more than 70 µM; that for AYAKQFAAI [Ube4a.1, A(y/D)AKQFAAI], more than 70 µM; that for LKSEEKTL [Stau1.1, LKSEEKT(l/P)], more than 70 µM.

Turning to PYLTQYAII [Dhx8.3, P(y/D)LTQYAII], the IC50 is 1.42 µM. TTTPGGRPPYL [Sipa113]: the IC50 was more than 70 µM. Regarding AYILAALTKLQ [Zfp236.2, E(y/D)LDLQTQG], the IC50 is more than 70 µM.
